Test: Human HepG2 cell viability assay in 384 well format
Format: toxicity, cell-based
Set-up: dose 125 nL, time 70.5 hour; concentration not given beside the values
Conditions: HepG2 cells, read-out: Inhibition

In order of rising cytotoxicity at 70.5 h:
1. NC(=O)CCCNC(=O)Cc1csc(Cc2ccccn2)n1  -135%
2. COCCCN(Cc1cnc(N2CCCC2)nc1)C1CCN(C)CC1  -20.3%
3. CC(=O)Nn1ccc2c(nnc3c(-c4ccc(F)cc4)cnn32)c1=O  -20.1%
4. Cc1noc2ncnc(N(C)Cc3ccco3)c12  -16.7%
5. Cc1cc(C)n(C2CN(CC(=O)NCc3ccccn3)C2)n1  -16.2%
6. COCCn1cc(NC(=O)N(CCC(N)=O)Cc2ccccc2)cn1  -14.4%
7. CC(CN1CCOCC1)NC(=O)Nc1cccnc1-n1cccn1 (centres undefined)  -14%
8. c1ccc(-n2ccc(CN3CCCC3Cn3cccn3)n2)cc1 (centres undefined)  -13.6%
9. CC(C)c1ccc(C(C)NC(=O)N2CCC(n3cncn3)CC2)cc1 (centres undefined)  -13.4%
10. Cc1ccc(CN2CC[C@@H](NC(=O)c3cccnc3)[C@H](O)C2)o1  -13.3%
11. COc1cc(C)c(C(C)NC(=O)Nc2nnc(C)s2)cc1OC (centres undefined)  -11.5%
12. Cc1nc2c(C)cccc2cc1C(=O)N1CCC2(CCCNC2)C1 (centres undefined)  -11.4%
13. CN1CC2(CCN(C(=O)c3ccc4nonc4c3)CC2)CC1=O  -11.3%
14. O=C(c1cnccn1)N1CCCC(Cn2cc(C3CCCC3)nn2)C1 (centres undefined)  -10.8%
15. CCCc1ccc(CN2CCN(C(=O)N(C)C)[C@@H]3CS(=O)(=O)C[C@@H]32)o1  -10.7%
16. CCc1cc(NC(=O)C2CCCN(C(=O)c3ccncc3)C2)[nH]n1 (centres undefined)  -10.6%
17. CC1CCCN(S(=O)(=O)NCc2ccccc2Cn2cncn2)C1 (centres undefined)  -10.6%
18. Cc1cc(C)n(CC(C)CNC(=O)NCc2ccco2)n1 (centres undefined)  -10.4%
19. O=C1OCCN1Cc1cccc(C(F)(F)F)c1F  -10.3%
20. CN1CCN(C(=O)c2n[nH]c3c2CN(C2CCOCC2)CC3)CC1  -10.2%
21. O=C1CC(c2cccnc2)c2c(c(C(=O)O)cn2-c2cccc(F)c2)N1 (centres undefined)  -8.96%
22. CC(C)CS(=O)(=O)CC(=O)N1CCCC1c1noc(C2CC2)n1 (centres undefined)  -8.35%
23. CC(=O)NCCNC(=O)c1cnc(C(C)(C)C)s1  -8.27%
24. Cc1nc(C2CCCN2C(=O)c2ccccc2)ncc1C(N)=O (centres undefined)  -7.95%
25. COCCn1c(=O)n(Cc2ccccc2C)c2cc(C(=O)O)ccc21  -7.93%
26. Cc1nc(C)c(CN2CCOC[C@H](Oc3cnccn3)C2)s1  -7.51%
27. COCc1ccccc1NCc1csc(NC(C)=O)n1  -7.46%
28. Cc1cc(C2CCCN2C(=O)NCc2c(C)cc(C)[nH]c2=O)on1 (centres undefined)  -7.29%
29. O=C(NCCCN1CCc2ccccc2C1)c1ccccc1Cl  -7.27%
30. COc1ccc2c(c1)CN(C)C(=O)CCN2CC(O)C(C)(C)C (centres undefined)  -6.98%
31. COc1ccc(C[C@H]2CN(C(=O)CN(C)C)CC[C@H]2OC)cc1  -6.67%
32. CCOc1cccc2c1OCC(=O)N(c1ccc3c(c1)OCCO3)C2  -6.5%
33. CCCc1nnsc1C(=O)NCC(O)c1cccs1 (centres undefined)  -6.4%
34. CCc1nc(C)c(C(=O)NCCNc2ncccn2)s1  -6.37%
35. CS(=O)(=O)Cc1ccc(NC(=O)c2cccnc2)cc1F  -6.22%
36. CCC[C@H]1CN(Cc2cc(C#N)n(C)c2C)C[C@@H]1NS(=O)(=O)CC  -6.14%
37. CN(CCNS(C)(=O)=O)C(=O)c1ccc(Cl)c(Cl)c1  -6.01%
38. CCN(C(=O)CCn1cccn1)C1CC1  -5.79%
39. O=C(C1SCCc2sccc21)N1CC(O)C1 (centres undefined)  -5.69%
40. Cc1cnn(CCNCc2csc(C)n2)c1  -5.62%
41. Cc1c(CNC(=O)NCc2cccc(-n3cncn3)c2)cnn1C  -5.57%
42. CC(=O)NCCCNCc1c(C)nn(CC(C)C)c1N(C)C  -5.4%
43. CC(c1cncs1)N(C)Cc1ccc(CCC(C)(C)O)cc1 (centres undefined)  -5.33%
44. CCCc1ccc(C(=O)N2CCc3c(nc(N(C)C)[nH]c3=O)C2)cc1  -5.16%
45. O=C(c1ccc2ccc(N3CCN(CC4CC4)CC3)n2c1)N1CCCO1  -5.05%
46. O=C(CSc1ccc2c(c1)OCCO2)NS(=O)(=O)c1ccccc1F  -5.01%
47. CCCC(=O)N1CCC(N2CC[C@@](O)(CCOC)[C@H](C)C2)CC1  -5%
48. O=C(NCC1CCOC1)N1CCN(Cc2ccc3c(c2)CCO3)CC1 (centres undefined)  -4.97%
49. CC(C)(C)c1cc(C(=O)NCCn2nc3ccccn3c2=O)[nH]n1  -4.69%
50. CN(C)CCOCc1nnc2n1CCN(Cc1ccco1)CC2  -4.62%
51. CCOCc1cncc2c1CCN(C(=O)c1cscn1)C2  -4.56%
52. O=C(C[C@@H]1COC[C@H]2CN(C(=O)c3cccnc3)C[C@@H]12)N1CCOCC1  -4.26%
53. CCNC(=O)C1CCCN(c2ccc(C#N)cc2C(F)(F)F)C1 (centres undefined)  -4.1%
54. Cc1noc(C(C)NC(=O)[C@@H](C)NC(=O)OC(C)(C)C)n1 (some centres undefined)  -3.59%
55. NC(=O)CN(Cc1ccc(Br)cc1)C(=O)c1cccnc1  -3.52%
56. COc1ccc(N(C)C(=O)c2cccc(S(C)(=O)=O)c2)cn1  -3.33%
57. CC(C)NC(=O)N1CCC(c2nccn2C(C)C)CC1  -3.22%
58. COCc1cc(O)nc(C2CCCN(Cc3ccc(OC)cc3)C2)n1 (centres undefined)  -2.96%
59. CN(Cc1ccco1)Cc1cnc2n1CCN(c1ccccn1)CC2  -2.44%
60. CN(Cc1ccc(O)cc1)C(=O)NCc1nnc2n1CCCCC2  -2.24%
61. COc1c(C2CCCN2C(=O)c2ccc3c(c2)OCO3)c(C)nn1C (centres undefined)  -2.19%
62. CS(=O)(=O)N1CCN(Cc2cccs2)CC(C(N)=O)C1 (centres undefined)  -2.16%
63. O=C(c1ccno1)N1CC(c2nc(-c3ccco3)no2)C1  -1.91%
64. O=C(c1ccncc1F)N1CCc2ncnc(C3CC3)c2CC1  -1.77%
65. Cc1nccc(C2CN(S(=O)(=O)N(C)C)C2)n1  -1.63%
66. NC(=O)C(NC(=O)CSCc1ccc(Cl)s1)c1ccccc1 (centres undefined)  -1.53%
67. Fc1cc(CN2CCOC3(CCOCC3)C2)ccc1Cl  -1.5%
68. Cc1nc(CNC(=O)NC2CCN(c3cccc(Cl)c3)C2)no1 (centres undefined)  -1.4%
69. O=C(NCCN1CCCC1)c1nc2c(o1)CN(c1ncccn1)C2  -1.07%
70. O=C(O)c1csc(S(=O)(=O)N2CCCc3ccc(F)cc32)c1  -0.904%
71. CCS(=O)(=O)N1C[C@H]2CN(CC3CC3)C(=O)[C@H]2C1  -0.251%
72. Cc1noc(C)c1CN(C)C(=O)c1ccc(C(F)(F)F)nc1  -0.00923%
73. O=C(CN1CCCCCC1)NCCSc1cnn[nH]1  0.00682%
74. CC(NCC1CCN(CCO)CC1)c1ccc(F)c(Cl)c1 (centres undefined)  0.00897%
75. Fc1ccc(CN2CCCC(c3nnc(-c4cnccn4)o3)C2)cc1F (centres undefined)  0.0269%
76. O=C(COc1ccc(-n2cccn2)nn1)NC1CCCCC1  0.192%
77. CC(C)c1nc(C2CCCN(C(=O)c3ccc4c(c3)COC4)C2)no1 (centres undefined)  0.421%
78. CCCc1nc(C)c(C(=O)NCCNc2ncccc2C#N)s1  0.537%
79. CCCN1CCCC1c1ccc(C(=O)N2CCOCC2)s1 (centres undefined)  0.549%
80. Cc1ccc(CN(CCCN2CCOCC2)Cc2cnn(C)c2)o1  0.657%
81. Cn1cc(S(=O)(=O)Nc2ccc3[nH]c(C4CCC4)nc3c2)cn1  0.665%
82. CC(=O)N1N=C(c2cccs2)OC1C(=O)Nc1ccc(C)cc1 (centres undefined)  1.28%
83. CC(C)c1noc(CCC(=O)NCC2CCC(C(N)=O)CC2)n1 (centres undefined)  1.53%
84. Cc1cc(C)n(CC(=O)N2CCC(c3nc(C)no3)CC2)n1  2.07%
85. c1ccc(CN2CCc3nnc(CN4CCCCC4)n3CC2)nc1  3.32%
86. Cn1cc(CN2CCCC23CCN(Cc2nccn2C)CC3)cn1  3.37%
87. Cc1ccc(CN2CCC(Cc3nnc(CO)n3C)CC2)cc1C  3.69%
88. Cc1c(Cn2ccnc2-c2cc(CN(C)C)cs2)cnn1C  3.72%
89. Cc1ccsc1CN(CCN(C)C)C(=O)c1cc2ccccc2[nH]1  4.92%
90. CCC[C@H]1CN(C2CCOCC2)C[C@@H]1NC(=O)CCc1cnccn1  6.02%
91. Cc1occc1C(=O)N1CCC[C@]2(C[C@@H](OCc3ccncc3)CO2)C1  6.49%
92. Cc1ccc(Cl)cc1N1CCN(CC(=O)NCc2ccco2)CC1  7.45%
93. O=C1CC(c2ccc(Cl)c(Cl)c2)c2c(n3ccsc3nc2=O)N1 (centres undefined)  10%
94. Cc1ccc(C)c(C(O)Cn2cc(Cl)c(=O)[nH]c2=O)c1 (centres undefined)  13.1%
95. COc1ccc(CN(C)c2nccc(-c3cn(C)nc3C)n2)cc1  13.2%
96. Cc1noc([C@@H]2C[C@H]3CN(CC4CCOCC4)C[C@H]3O2)n1  14.1%
97. Cn1ccc(C(=O)N2CCC(Cc3ccc4ncccc4c3)CC2)n1  14.8%
98. CN(C)S(=O)(=O)c1ccc(CN2CCCC2c2cccs2)o1 (centres undefined)  15.3%
99. CNc1cncc(C2CCCN2Cc2ccnc(N3CCCC3)n2)n1 (centres undefined)  16.1%
100. CCn1cnnc1CNC(=O)N1CCC(C)CC1  16.5%
101. CC(C)(CN1CCOCC1)CN1CCC(Cc2cccc(CO)c2)C1 (centres undefined)  17.8%
102. Cc1cnc(CCNC(=O)C2CCN(S(=O)(=O)c3ccc(F)cc3)C2)s1 (centres undefined)  17.8%
103. Cc1cc(N)nc(SC2CCN(c3ccccc3F)C2=O)n1 (centres undefined)  19%
104. CNCCN1C(=O)CC[C@H]2CN(c3ncc(F)cn3)CC[C@H]21  20%
105. CC(C)c1nc(CNC2CCN(S(C)(=O)=O)CC2)cs1  20.3%
106. CCCc1nc(C)c(C(=O)NCCN2CCOCC2)s1  21.3%
107. COCc1nc2n(n1)CCCC2Nc1nc(C)ns1 (centres undefined)  24.4%
108. CC(C)COC(=O)N1CC(=O)N(CCc2ccccc2)CC(O)C1 (centres undefined)  25.4%
109. CN(c1ncccc1CNC(=O)c1csnn1)C1CCCCC1  26.5%
110. Cc1cc(-n2cccn2)ccc1CN1CCOCC(CN(C)C)C1 (centres undefined)  27.5%
111. Cc1nn(C)cc1-c1cc(C(F)(F)F)c2c(C)nn(CC(=O)O)c2n1  32%
112. CSc1ncccc1C(=O)NCc1ccc(N(C)C)cc1  40.2%
113. O=C(CSc1ccccn1)NCc1ccc2c(c1)CCC(=O)N2  40.7%
114. CCc1ccc(NC(=O)N2C[C@H]3CC[C@@]4(N=C(C)N(C)C4=O)[C@H]3C2)cc1  44.3%
